Source: US20190137505A1 (THE ARIZONA BOARD OF REGENTS ON BEHALF OF THE UNIVERSITY OF …, priority 2015, published 2019)

Tests used:
HSA drug site I = target: T1, HSA drug site I (Homo sapiens, UniProt P02768); test: Prodan displacement assay; format: binding; conditions: prodan-HSA 75 μM; 30 min; fluorescence 465 nm emission
T1 construct: purchased Sigma-Aldrich A3782
Procedure: A solution of human serum albumin (HSA) (20 ml at 10 mg/ml) in 1×PBS pH 7.4 was prepared. A slurry (10 ml) of Lipidex-1000 in methanol was buffer exchanged into 1×PBS and the buffer decanted from the aqueous slurry. The HSA solution was added to the slurry and the mixture was rotated at room temperature for 30 min. The Lipidex slurry was completely removed from HSA by plunging through a 0.22 μm filter using a 60 ml syringe. Prodan (25 mg) was dissolved in of 40% ethanol, 60% methanol (5 ml at a final concentration is 5 mg/ml). A portion (10 ml) of delipidated HSA (10 mg/ml) was incubated with 666.7 μl of the prodan solution (1:10 molar ratio HSA:prodan), and this mixture was rotated at room temperature for 30 minutes. The HSA-prodan mixture was placed on dry ice and acetone precipitated by adding 40 ml of acetone at −20° C., which was mixed and centrifuged at 3000×g for 10 min to pellet the precipitated HSA-prodan. Two additional washes of cold acetone were used to remove any free prodan. The HSA pellet was brought to 10 ml with PBS and mixed and resuspended.
A 2-fold serial dilution of MG in 1×PBS pH 7.4 was prepared starting from a stock solution of 10 mM. […] An aliquot (300 μl) of each reaction was read using a Gemini XPS Fluorescence Microplate Reader (Molecular Devices) in endpoint mode with 360 nm excitation, 420 nm filter cut-off, and 465 nm emission.

Pg = target: T2, Pg (Homo sapiens, UniProt P00747); test: Two-dimensional gel electrophoresis of MG-modified Pg (isoelectric point shift); format: physicochemical; conditions: 24-hr 500 μM MG; 4-7 pH isoelectric focusing strip
T2 construct: Glu-Pg, uPA, tPA, fibrinogen, and chromogenic substrate for Pn were purchased from Molecular Innovations (Novi, Mich.); purchased Molecular Innovations (Novi, Mich.)
T2 sequence (P00747 20-810 limits assumed): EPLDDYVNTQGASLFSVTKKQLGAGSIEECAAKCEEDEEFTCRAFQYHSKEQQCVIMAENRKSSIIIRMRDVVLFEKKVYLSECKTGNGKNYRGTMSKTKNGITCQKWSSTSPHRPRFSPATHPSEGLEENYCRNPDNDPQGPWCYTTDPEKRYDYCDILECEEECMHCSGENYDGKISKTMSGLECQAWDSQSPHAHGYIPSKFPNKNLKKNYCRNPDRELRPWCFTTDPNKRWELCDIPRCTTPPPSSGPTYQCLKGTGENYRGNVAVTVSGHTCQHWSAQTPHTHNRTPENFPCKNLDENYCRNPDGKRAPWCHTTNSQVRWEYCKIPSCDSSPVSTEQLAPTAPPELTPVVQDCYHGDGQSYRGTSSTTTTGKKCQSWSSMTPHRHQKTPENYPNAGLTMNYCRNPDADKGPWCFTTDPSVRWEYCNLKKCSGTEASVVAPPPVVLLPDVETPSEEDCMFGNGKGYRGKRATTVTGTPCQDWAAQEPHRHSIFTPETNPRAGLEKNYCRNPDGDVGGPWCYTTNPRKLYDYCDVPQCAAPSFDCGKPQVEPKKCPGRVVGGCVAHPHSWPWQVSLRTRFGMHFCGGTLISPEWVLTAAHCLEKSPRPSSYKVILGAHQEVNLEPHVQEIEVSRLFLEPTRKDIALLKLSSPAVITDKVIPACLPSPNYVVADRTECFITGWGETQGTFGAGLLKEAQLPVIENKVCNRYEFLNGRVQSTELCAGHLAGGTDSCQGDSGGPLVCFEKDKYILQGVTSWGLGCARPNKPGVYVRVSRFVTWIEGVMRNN
Procedure: (§1) 10 μg Pg was incubated with MG (50-500 μM) in tris-buffered saline (TBS) for 24 hours at 37° C. Following modification, sample volumes were increased to 150 μL and placed in 5 kDa spin filters to reduce volume and remove excess MG from solution.
MG-modified (500 μM) and unmodified Pg control (same incubation conditions without MG) were added to 250 μL amount of rehydration buffer (6M urea, 2M thiourea, 2% CHAPS, 100 mM DTT, 0.5% 3-10 ampholytes) and 5 μL of 3-10 ampholytes (Bio-Rad). Sample rehydrated with a 13 cm 4-7 pH isoelectric focusing strip (GE Healthcare) overnight. Following rehydration, strips were placed in a Bio-Rad PROTEAN IEF Cell focusing instrument. Strips were first focused for 1 hour at 500 V, and then run at a maximum of 8,000V until the strips have reached a final total of 45,000 V/hrs at which point gels are held at 500V until removed. Focused strips were removed, reduced with DTT, cysteines carbamidomethylated with iodoacetamide, and run on a 4-20% gradient Criterion gel for 55 minutes at 200V. Gels were stained for stained according to manufacturer instructions with Imperial Blue Protein (ThermoScientific, Rockford, Ill.) and destained immediately with water. Gel bands were excised and trypsin digested.

plasminogen (Pg) = target: T3, plasminogen (Pg) (Homo sapiens, UniProt P00747); test: Chromogenic activity assay: activation of unmodified and MG-modified Pg to plasmin by tPA, uPA or STK on a fibrin matrix; format: biochemical; conditions: p<0.05
T3 construct: Glu-Pg, uPA, tPA, fibrinogen, and chromogenic substrate for Pn were purchased from Molecular Innovations (Novi, Mich.); purchased Molecular Innovations (Novi, Mich.)
T3 sequence (P00747 20-810 limits assumed): as above
Procedure: as §1
96-well plate was incubated with 200 μL of 260 nM fibrinogen in TBS for 40 min at room temperature. Fibrinogen solution was removed and replaced with 250 μL TBS containing 3% bovine serum albumin and 0.01% TWEEN for 90 minutes at 37° C. Blocking solution was removed and the plate was washed twice with solution of 50 mM Tris-HCl, 110 mM NaCl and 0.01% TWEEN (pH 7.4). 5 units/mL of thrombin and 5 mM CaCl2 in 50 mM Tris-HCl, 110 mM NaCl (pH 7.4) was added to the wells for 45 min. A high salt wash (1 M NaCl, 50 mM Tris-HCl, pH 7.4) followed by a TBS-TWEEN wash completed plate prep.
Into each well 198 μL of 10 mM HEPES/150 mM NaCl (pH 7.4) was added. Into each well, 2 μL of 25 mM chromogenic substrate for Pn (D-VLK-pNA) was added. To appropriate wells were added 2 μL of 20 μM Pg, either a 24-hour unmodified control or 24 hour 50-500 μM MG modified. Activators were added to respective wells to test activation of unmodified and modified Pg. 2 μL of each activator enzyme was utilized in appropriate wells for tPA (1.2 μM), uPA (5 μM) and STK (500 nM). Following enzyme addition, plate was immediately read on a SpectraMax M2 plate reader (Molecular Devices) every minute for 90 minutes at an absorbance of 405 nm.
Pg (10 μg) was incubated with MG (50-500 μM) in 10 mM HEPES/150 mM NaCl (pH 7.4) for 24 hours at 37° C. Following modification, sample volumes were increased to 150 μL and placed in 5 kDa spin filters to reduce volume and remove excess MG from solution. A 96-well plate was incubated with 200 μL of 260 nM fibrinogen in TBS for 40 min. at room temperature. Fibrinogen solution was removed and replaced with 250 μL TBS containing 3% bovine serum albumin and 0.01% TWEEN for 90 minutes at 37° C. Blocking solution was removed and the plate was washed twice with solution of 50 mM Tris-HCl, 110 mM NaCl and 0.01% TWEEN (pH 7.4). Thrombin (5 units/mL) and 5 mM CaCl2 in 50 mM Tris-HCl, 110 mM NaCl (pH 7.4) was added to the wells for 45 min. A high salt wash (1M NaCl, 50 mM Tris-HCl, pH 7.4) followed by a TBS-TWEEN wash completed plate prep. Into each well, 198 μL of 10 mM HEPES/150 mM NaCl (pH 7.4) and 2 μL of 25 mM chromogenic substrate for Pn (D-VLK-pNA) were added. To appropriate wells were added 2 μL of 20 μM Pg, either a 24-hour unmodified control or 24 hour 50-500 μM MG modified. Activators were added to respective wells to test activation of unmodified and modified Pg. Each activator enzyme (2 μL) was utilized in appropriate wells for tPA (12 nM), uPA (50 nM) and STK (5 nM) (Ajjan et al., 2013, Zhang et al., 2012). Following enzyme addition, plate was immediately read on a SpectraMax M2 plate reader (Molecular Devices) every minute for 90 minutes at an absorbance of 405 nm.

T1 sequence (P02768 25-609): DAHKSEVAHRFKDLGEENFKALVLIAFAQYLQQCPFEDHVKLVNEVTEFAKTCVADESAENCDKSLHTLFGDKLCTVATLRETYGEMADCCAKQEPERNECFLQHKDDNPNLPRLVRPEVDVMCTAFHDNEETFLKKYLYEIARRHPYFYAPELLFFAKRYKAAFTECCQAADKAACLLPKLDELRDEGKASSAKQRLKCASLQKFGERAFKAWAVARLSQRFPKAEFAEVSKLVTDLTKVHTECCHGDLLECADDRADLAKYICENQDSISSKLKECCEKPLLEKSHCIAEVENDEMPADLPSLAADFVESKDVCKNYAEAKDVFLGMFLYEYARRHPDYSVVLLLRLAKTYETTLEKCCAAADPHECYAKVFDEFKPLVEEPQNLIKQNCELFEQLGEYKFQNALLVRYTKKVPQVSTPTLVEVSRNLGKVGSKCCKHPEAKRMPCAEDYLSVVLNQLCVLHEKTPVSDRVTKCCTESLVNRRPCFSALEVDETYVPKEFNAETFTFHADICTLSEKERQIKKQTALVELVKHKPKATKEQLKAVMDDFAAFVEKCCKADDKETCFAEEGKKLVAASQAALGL

CC(=O)C=O [MG, Methylglyoxal]
MG concentrations that displace prodan from prodan-HSA complex (HSA drug site I): above 300 μM
pI of MG-modified Pg (Pg): 5.8-6.7
time at which significant delay in activation of MG-modified Pg is detectable (plasminogen (Pg); STK 5 nM, Pg modified 24 hours with 100 μM MG): 16 min
time at which significant delay in activation of MG-modified Pg is detectable (plasminogen (Pg); STK 5 nM, Pg modified 24 hours with 500 μM MG): 12 min
time at which significant delay in activation of MG-modified Pg is detectable (plasminogen (Pg); tPA 12 nM, Pg modified 24 hours with 100 μM MG): 30 min
time at which significant delay in activation of MG-modified Pg is detectable (plasminogen (Pg); tPA 12 nM, Pg modified 24 hours with 500 μM MG): 28 min
time at which significant delay in activation of MG-modified Pg is detectable (plasminogen (Pg); uPA 50 nM, Pg modified 24 hours with 500 μM MG): 37 min
